Measured values published in patent publication US9945860B2, “Nicotinamide adenine dinucleotide indicators, methods of preparation and application thereof” (East China University of Science and Technology, priority 2011, dated 2018).
Values joined by “and” are separate entries in the source; they are usually repeats but may differ in a detail not shown here. Identical values can stand only once.

Assays:
[1] = tested on: H1299 tumor cells; test: In vivo imaging of NADH metabolism in H1299-superFrex tumors; parameters: species or system nude mice; conditions: 300 μl sodium pyruvate (100 mM) via the tail vein
Method: H1299 tumor cells were transfected with pcDNA3.1-cyt-superFrex, and then screened under Hygromycin B for 2 weeks. […] Male nude mice of 5-6 weeks old were subcutaneously injected with 200 μl of H1299-superFrex cell suspension (1.0×10^7 cells) into their right armpits and housed for 3-4 weeks at SPF Animal facility, tumors in the nude mice grew to 0.6-1.0 cm. The nude mice were anaesthetized and then injected with 300 μl of sodium pyruvate (100 mM) via the tail vein. Effects of the agent on tumor metabolism were observed immediately with Kodak multifunctional vivo imaging system (Carestream, USA). […] Over time, pyruvate was gradually consumed metabolically, and the ratio of NADH/NAD^+ in tumor cells resumed the initial level (FIG. 12-C). In summary, superFrex, the fluorescent sensor for reduced/oxidized nicotinamide adenine dinucleotide ratio, works well in real-time monitoring of the NADH metabolism in tumor tissues.

[2] = tested on: 293FT cells; test: Real-time measurement of intracellular NADH after adding external NADH to the culture medium; type: cell-based
Text: As described in Example 7, the fluorescence sensors for reduced nicotinamide adenine dinucleotide were expressed in different subcellular organelles of 293FT cells. […] Following the addition of external NADH into cell culture medium, transfected cells were observed under a laser scanning confocal microscope (Nikon, Japan). […] As to the control group in comparison, the cpYFP presented alone was not affected by extra NADH either. Therefore, effects of pH and the variation in cpYFP per se by environmental changes could be excluded. This series of sensors were further utilized to detect influences of extra NADH on other organelles, and observed that extra NADH could also increase the NADH levels in nucleus and mitochondria, the results for nucleus study are shown in FIG. 8-1B, and those for mitochondria study are shown in FIG. 8-1C.

[3] = tested on: NADH levels in mitochondria; test: Real-time detection of mitochondrial NADH when respiratory chain complexes are inhibited; type: cell-based; conditions: for fluorescence (ex 485, em 528) of the sensor in mitochondria: treated for 30 min
Method: NADH that produced via glycolysis pathway and tricarboxylic acid cycle pathway will be oxidized by the oxidative phosphorylation pathway of mitochondrial respiratory chain, and then generate ATP to provide energy for various life activities. Fluorescent sensors for nicotinamide adenine dinucleotide were used to measure changes of NADH levels in mitochondria when various complexes in the respiratory chain were inhibited. […] Time interval between the figures was 1 min. The cells were observed before and after treatment under a laser scanning confocal microscope (Nikon, Japan). […].

[4] = Spectral characteristics of fluorescent sensors (excitation and emission spectra); type: physicochemical; conditions: 10 μM sensor in 100 mM KPi, pH7.4
Method: The fluorescent sensors that prepared above were dissolved in assay buffer (100 mM KPi, pH7.4) to formulate fluorescent sensor solutions to a final concentration of 10 μM. Then their absorption spectra were measured using a Multi-functional Fluorescence Microplate Reader (Synergy2, Biotek) (FIG. 3A).
Their excitation and emission spectra were determined using a fluorescence spectrophotometer (Cary Eclipse Fluorescence spectrophotometer, Varian) (FIG. 3B).

[5] = tested on: NADH levels in different subcellular compartments; test: Real-time measurement of NADH levels regulated by glucose, pyruvate and lactate; type: cell-based
Text: Glycolysis is an important pathway of producing NADH and it plays a vital role in regulating intracellular NADH levels. The nicotinamide adenine dinucleotide fluorescent sensors were used to test how several important metabolites in this pathway, glucose, pyruvate and lactate, would influence the NADH levels in different subcellular compartments. […] As products of glycolysis pathway, pyruvate and lactate are presented in the cytoplasm with a dynamic balance between them. At increased intracellular levels of pyruvate, lactate dehydrogenase consumes NADH and produces lactate and NAD^+, and in turn, leads to the decrease of NADH levels in cytoplasm. At increased intracellular levels of lactate, lactate dehydrogenase consumes NAD^+ and produces pyruvate and NADH, and in turn, leads to the increase of NADH levels in cytoplasm.

cpYFP: circular permutation yellow fluorescent protein, control protein, SEQ ID NO: 22
control tumor cells expressing cpYFP, change caused by pyruvate [1]: no difference
effect of extra NADH on control protein presented alone ([2]; 293FT cells): not affected
control protein expressed in mitochondria upon 3-NP treatment ([3]; 6-minute profile): no obvious change

F-rex2: sensor from pRSETb-ydiH(189)-YFP-ydiH(190), Thermus aquaticus YdiH with cpYFP inserted, SEQ ID NO: 8
emission peak [4]: 518 nm
excitation peaks [4]: 410 nm and 500 nm
intensity of the latter excitation peak relative to the former [4]: about half

C=C(C)[C@H]1Cc2c(ccc3c2O[C@@H]2COc4cc(OC)c(OC)cc4[C@@H]2C3=O)O1 [rotenone]
fluorescence (ex 485, em 528) of the sensor in mitochondria [3]: increased

O=C(O)CC[N+](=O)[O-] [3-NP]
NADH levels in mitochondria ([3]; NADH sensor expressed in mitochondria, 6-minute profile): greatly decline

antimycin A
fluorescence (ex 485, em 528) of the sensor in mitochondria [3]: increased

CC(O)C(=O)O (stereo not drawn) [lactate]
NADH levels in cytoplasm [5]: rapid increase

NC(=O)C1=CN([C@@H]2O[C@H](COP(=O)(O)OP(=O)(O)OC[C@H]3O[C@@H](n4cnc5c(N)ncnc54)[C@H](O)[C@@H]3O)[C@@H](O)[C@H]2O)C=CC1 [NADH, reduced nicotinamide adenine dinucleotide]
intracellular NADH levels ([2]; external NADH added to medium): immediate increase
NADH levels in nucleus and mitochondria ([2]; extra NADH): increase
